We go through eight compounds from article PMC6316234, “Bromopyrrole Alkaloids from the Sponge Agelas kosrae” (Marine Drugs, 2018).

Molecules are shown by their SMILES. Read-outs that look alike come from different tables or passages of the source.

For test [1], the system named is human umbilical vein endothelial cells (HUVEC). Put plainly: Anti-angiogenic activity, VEGF-induced tube formation assay. The class given is cell-based. The settings on record: for IC50: Homo sapiens, HUVEC, VEGF 50 ng/mL, 6 h, read-out: IC50 Anti-Angiogenesis Tube Formation. The procedure:
(§1) Anti-angiogenic activity was evaluated using human umbilical vein endothelial cells (HUVEC) using previously described experimental methods. HUVEC cells were purchased from the American Type Culture Collection (ATCC, Rockville, MD, USA) and cultured in EGM-2 (Lonza, Walkerswille, MD, USA) supplemented with 10% fetal bovine serum (FBS) and antibiotics–antimycotics (PSF; 100 units/mL penicillin G sodium, […], and 250 ng/mL amphotericin B). Briefly, HUVEC cells were mixed with tested compounds in 0.5% FBS EBM-2 media stimulated with or without VEGF (50 ng/mL) on matrigel-coated 96-well plates for 6 h at 37 °C under a humidified atmosphere containing 5% CO2. After the tube formation, cells were photographed using an inverted microscope (Olympus Optical Co. Ltd., Tokyo, Japan), then images were quantified with Angiogenesis Analyzer using Image J software. Tube formation activity was calculated using the following formula: (Total segment # (tested compound) − Total segment # (VEGF−))/(Total segment # (VEGF+) − Total segment # (VEGF−)) × 100. The IC50 value was calculated through non-linear regression analysis using TableCurve 2D v5.01 (Systat Software Inc., San Jose, CA, USA). Cell viability with HUVEC cells were measured independently. First, HUVEC cells were seeded into a 96-well plate and the culture medium was replaced with a serum-free medium when it reached 60% confluency. After overnight starvation, cells were treated with samples and VEGF (50 ng/mL) in 2% FBS EBM-2 medium. Cells were further incubated for 24 h, and MTT assay was used to measure the cell viability. The formazan products were dissolved in dimethyl sulfoxide (DMSO). The absorbance was measured at 570 nm using VersaMax ELISA microplate reader (Molecular Devices, Sunnyvale, CA, USA).

Test [2] has as its system HCT116. Put plainly: Anti-proliferative activity, SRB staining assay, HCT116. The class given is cell-based. Conditions: Homo sapiens, HCT-116, 72 h, read-out: IC50 Anti-Proliferation HCT 116. The protocol: (§2) Anti-proliferative activity was evaluated using SRB staining assay in various cancer cell lines (K562, A549, HCT116, MDA-MB-231, SNU638, SK-Hep-1). Cells were purchased from the American Type Culture Collection (ATCC, Rockville, MD, USA). They were cultured in media supplemented with 10% fetal bovine serum (FBS) and antibiotics–antimycotics (PSF; 100 units/mL penicillin G sodium, […], and 250 ng/mL amphotericin B). All cells were maintained at 37 °C under a humidified atmosphere containing 5% CO2. Briefly, cells were seeded in 96-well plates with various doses of compounds and incubated for 72 h. The cells were stained as previously described. First, cells were fixed with 10% trichloroacetic acid and stained with 0.4% SRB in a 1% acetic acid solution. After washing and drying, dyes were dissolved in 10 mM Tris buffer (pH 10.0) and absorbance was measured at 515 nm. The percentage of cell proliferation was determined according to the following formula: cell proliferation (%) = 100 × ((A treated − A zero day)/(A control − A zero day)), where A is the average absorbance. The IC50 values were calculated through non-linear regression analysis using TableCurve 2D v5.01 (Systat Software Inc., San Jose, CA, USA).
(In general: The SRB assay estimates cell density from bound dye.)

Test [3] has as its system SK-Hep-1. Nature of the test: Anti-proliferative activity, SRB staining assay, SK-Hep-1. The class given is cell-based. Conditions: Homo sapiens, SK-HEP1, 72 h, read-out: IC50 Anti-Proliferation SK-Hep-1. The protocol:
as §2

For test [4], the system named is K562. Put plainly: Anti-proliferative activity, SRB staining assay, K562. The settings on record: Homo sapiens, 72 h. The class given is cell-based. The procedure:
as §2

Test [5] deals with MDA-MB-231. Put plainly: Anti-proliferative activity, SRB staining assay, MDA-MB-231. The class given is cell-based. The settings on record: Homo sapiens, 72 h, read-out: IC50 Anti-Proliferation MDA-MB-231. The protocol:
as §2

Test [6] relates to A549. Put plainly: Anti-proliferative activity, SRB staining assay, A549. The settings on record: Homo sapiens, 72 h, read-out: IC50 Anti-Proliferation A549. The class given is cell-based. The protocol: as §2
Test [7] concerns human umbilical vein endothelial cells (HUVEC). Nature of the test: HUVEC cell viability, MTT assay. The class given is cell-based. Conditions: VEGF 50 ng/mL, 24 h, read-out: IC50 Anti-Angiogenesis Cell Viability. The procedure: as §1
Background: Tetrazolium assays rely on reduction of a dye to a coloured formazan, in cell work by metabolically active cells.

Test [8] relates to SNU638. Put plainly: Anti-proliferative activity, SRB staining assay, SNU638. The settings on record: Homo sapiens, SNU-638, 72 h, read-out: IC50 Anti-Proliferation SNU 638. The class given is cell-based. The protocol: as §2
Test [9] addresses Candida albicans-derived isocitrate lyase (ICL) (Candida albicans, UniProt Q9P8Q7). Nature of the test: biochemical. The class given is biochemical. The protocol: A 1 mL aliquot of the reaction mixture contained 20 mM sodium phosphate buffer (pH 7.0), 1.27 mM threo-DL-(+)-isocitrate, 3.75 mM MgCl2, 4.1 mM phenylhydrazine, and 2.5 μg/mL of recombinant ICL. The reaction was immediately initiated following the addition of a substrate with or without a prescribed concentration of the inhibitor dissolved in DMSO (final concentration, 1%). Glyoxylate phenylhydrazone formation was spectrophotometrically assessed at 324 nm after incubation at 37 °C for 30 min. The percent inhibition of ICL enzyme activity for each compound was calculated relative to the inhibitor-free control and the IC50 values were calculated using nonlinear regression analysis (percent inhibition versus concentration). 3-Nitropropionic acid was used as a positive control. Protein concentrations were measured using the Bradford method with the Bio-Rad protein assay kit (Bio-Rad) and bovine serum albumin as the standard.

[10] abbreviates: recombinant ICL, 37 °C, 30 min, read-out: IC50 ICL.

Candida albicans-derived isocitrate lyase (ICL), sequence (Q9P8Q7 whole entry): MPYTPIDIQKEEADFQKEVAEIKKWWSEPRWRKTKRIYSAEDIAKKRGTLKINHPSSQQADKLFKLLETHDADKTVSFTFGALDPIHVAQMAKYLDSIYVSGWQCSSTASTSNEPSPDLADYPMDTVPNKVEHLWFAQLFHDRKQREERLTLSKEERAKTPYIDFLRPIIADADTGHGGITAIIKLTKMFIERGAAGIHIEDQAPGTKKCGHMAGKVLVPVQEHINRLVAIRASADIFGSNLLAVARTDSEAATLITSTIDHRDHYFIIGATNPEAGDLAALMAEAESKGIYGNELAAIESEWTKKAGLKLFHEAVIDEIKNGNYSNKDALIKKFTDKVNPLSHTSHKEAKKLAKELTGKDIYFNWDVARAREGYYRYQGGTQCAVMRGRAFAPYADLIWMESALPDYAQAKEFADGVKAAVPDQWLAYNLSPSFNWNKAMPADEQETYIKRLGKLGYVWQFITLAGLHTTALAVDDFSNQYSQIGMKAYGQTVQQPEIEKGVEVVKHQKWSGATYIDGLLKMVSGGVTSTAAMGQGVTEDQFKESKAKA

As for `COC(=O)[C@@H]1[C@@H](CNC(=O)c2cc(Br)c[nH]2)[C@H](CNC(=O)c2cc(Br)c[nH]2)[C@H]1C(=O)O` [Compound 3, ageleste A], the IC50 in test [1] is above 40 µM; in [2] it was above 50 µM; in test [3], above 50 µM; in [4], 37.6 µM; in test [5], above 50 µM; in test [6], above 50 µM. The values for the IC50 in test [7], in test [8] and in [9] (setting [10]) were above 40 µM, above 50 µM and above 100 µM, respectively.

In turn, `O=C(O)CC[N+](=O)[O-]` [Compound 3-NP, 3-Nitropropionic acid, reference compound] registered an IC50 in test [9] of 11.1 µM.

Consider `COC(=O)[C@@H]1[C@@H](CNC(=O)c2cc(Br)c[nH]2)[C@H](CNC(=O)c2cc(Br)c[nH]2)[C@H]1C(=O)OC` [Compound 4, ageleste B], for which the IC50 in test [1] was above 40 µM; in test [2], 38.2 µM; in test [3], above 50 µM; in test [4], 26.4 µM; in test [5] it was above 50 µM; in test [6], 30.5 µM. The IC50 in [7] is above 40 µM; in test [8], 37.1 µM; in [9] (setting [10]) it was 85.3 µM.

With `NC1=NC(=O)C([C@@H]2[C@@H](CNC(=O)c3cc(Br)c[nH]3)[C@H](CNC(=O)c3cc(Br)c[nH]3)[C@H]2C2NC(N)=NC2=O)N1` (mixture of isomers) [Compound 1, dioxysceptrin], the IC50 in [1] is 7.99 µM; in [2], 9.93 µM; in [3], 35.2 µM; in [4], 12.9 µM; in [5], 32.8 µM; in test [6], 31.3 µM. In addition, the figures for the IC50 in test [7], in test [8] and in [9] (setting [10]) were above 40 µM, 7.92 µM and above 100 µM, respectively. Further, in test [1] (non-cytotoxic concentrations range 5–20 μM), the “anti-angiogenic activity in the tube formation assay” value is reported as “moderate anti-angiogenic activity”.

Compound `COc1cccc2c1C(=O)c1c(O)c3c(c(O)c1C2=O)C[C@@](O)(C(=O)CO)C[C@@H]3O[C@H]1C[C@H](N)[C@H](O)[C@H](C)O1` [Doxorubicin, reference compound] showed an IC50 in [4] of 1.08 µM.

`O=C(NC[C@H]1[C@H](CNC(=O)c2cc(Br)c[nH]2)[C@@H](C(=O)O)[C@@H]1C(=O)O)c1cc(Br)c[nH]1` [Compound 2, ageleste C]: the IC50 is above 40 µM in [1]; 44.1 µM in test [2]; above 50 µM in test [3]; 19.1 µM in test [4]; above 50 µM in test [5]; 49.3 µM in test [6]. Further, the results for the IC50 in test [7], in test [8] and in test [9] (setting [10]) were above 40 µM, 36.8 µM and 22.1 µM, respectively. Besides, the “inhibition of isocitrate lyase (ICL)” value in test [9] is reported as “moderate inhibition”.

For `COc1cc([C@@H]2c3cc4c(cc3[C@@H](O[C@@H]3O[C@@H]5CO[C@@H](C)O[C@H]5[C@H](O)[C@H]3O)[C@H]3COC(=O)[C@H]23)OCO4)cc(OC)c1O` [Etoposide, reference compound], the IC50 worked out at 0.73 µM in test [2]; 0.74 µM in [3]; 3.12 µM in [5]; 0.83 µM in test [6]; 0.63 µM in [8].

As for `CCN(CC)CCNC(=O)c1c(C)[nH]c(/C=C2\C(=O)Nc3ccc(F)cc32)c1C` [Sunitinib, sunitinib, reference compound], the IC50 in [1] amounted to 2.41 µM; in test [7], 9.92 µM.
